This note sets out measurements from patent US20250230193A1, “CYCLIC COMPOUND HAVING SELECTIVE KRAS INHIBITORY EFFECT ON HRAS AND NRAS” (CHUGAI SEIYAKU KABUSHIKI KAISHA, priority 2022, published 2025).

Test [1] has as its target GDP-bound NRAS wild-type protein (Homo sapiens, UniProt P01111). Kind of test: Binding to NRAS by surface plasmon resonance (SPR), Single Cycle Kinetics. Particulars: for NRAS/KRAS (ratio of KD value with respect to NRAS to KD value with respect to KRAS) / NRAS/KRAS (ratio of KD value for NRAS to KD value for KRAS): GDP-bound NRAS wild-type vs GDP-bound KRAS wild-type.
Test [2] has as its target GDP-bound HRAS wild-type protein (Homo sapiens, UniProt P01112). Kind of test: Binding to HRAS by surface plasmon resonance (SPR), Single Cycle Kinetics. Particulars: for HRAS/KRAS (ratio of KD value with respect to HRAS to KD value with respect to KRAS) / HRAS/KRAS (ratio of KD value for HRAS to KD value for KRAS): GDP-bound HRAS wild-type vs GDP-bound KRAS wild-type. For orientation: SPR reads the build-up and loss of mass on a sensor chip optically.

Where a SMILES comes first, the peptide text is derived from it. Bridges are numbered along the chain shown (N, C = ends). [ ]: non-standard residue; d: D form. The star is where a group is joined. hPhe(3-Cl-4-CF3) = N[C@@H](CCc1ccc(C(F)(F)F)c(Cl)c1)C(=O)O; NPrPhe(4-CF3) = CCCN[C@@H](Cc1ccc(C(F)(F)F)cc1)C(=O)O; NMeGly(cPent) = CN[C@H](C(=O)O)C1CCCC1; NMeGly(cBu) = CN[C@H](C(=O)O)C1CCC1; NMeD = CN[C@@H](CC(=O)O)C(=O)O; Morpholide = C1CN(*)CCO1; Ac5c = NC1(C(=O)O)CCCC1; Sar = CNCC(=O)O

Chain of GDP-bound HRAS wild-type protein (P01112 whole entry): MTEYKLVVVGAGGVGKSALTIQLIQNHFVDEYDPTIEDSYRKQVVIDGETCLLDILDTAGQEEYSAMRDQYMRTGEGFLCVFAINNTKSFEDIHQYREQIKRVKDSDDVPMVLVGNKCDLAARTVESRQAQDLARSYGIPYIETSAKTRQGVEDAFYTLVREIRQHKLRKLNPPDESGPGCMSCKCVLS
Chain of GDP-bound NRAS wild-type protein (P01111 whole entry): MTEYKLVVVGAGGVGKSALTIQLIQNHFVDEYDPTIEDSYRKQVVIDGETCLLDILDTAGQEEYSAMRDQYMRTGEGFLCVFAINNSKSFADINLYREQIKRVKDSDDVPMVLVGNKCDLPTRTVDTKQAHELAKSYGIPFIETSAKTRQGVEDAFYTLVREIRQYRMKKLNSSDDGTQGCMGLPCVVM

Consider `CC[C@H](C)[C@@H]1NC(=O)[C@H](COC)N(C)C(=O)C[C@@H](C(=O)N(C)C)N(C)C(=O)[C@H](C2CCCC2)N(C)C(=O)C2(CC(C)(C)C2)NC(=O)[C@@H]2C[C@H](C)CN2C(=O)[C@H](CCc2ccc(C(F)(F)F)c(Cl)c2)NC(=O)CN(C)C(=O)[C@H](Cc2ccc(C)cc2)N2CC/C=C\C[C@@H](C2=O)N(C)C(=O)CN(C)C1=O` [PP2502], for which the “NRAS/KRAS (ratio of KD value with respect to NRAS to KD value with respect to KRAS)” value in test [1] (SPR) was “A (a compound having 10 or more and less than 20 is denoted as A)”. Further, in test [2] (SPR), the “HRAS/KRAS (ratio of KD value with respect to HRAS to KD value with respect to KRAS)” value is “A (a compound having 10 or more and less than 20 is denoted as A)”.

In the case of `CCO[C@@H]1C[C@H]2C(=O)NC3(CCC3)C(=O)N(C)[C@@H](C3CCCC3)C(=O)N(C)[C@H](C(=O)N3CCOCC3)CC(=O)N(C)[C@@H](CC(C)C)C(=O)N[C@@H]([C@@H](C)CC)C(=O)N(C)CC(=O)N(C)[C@H]3CCCCCN(C3=O)[C@@H](Cc3ccc(F)cc3Cl)C(=O)N(C)CC(=O)N[C@@H](CCc3cc(F)c(C(F)(F)F)c(F)c3)C(=O)N2C1` [PP0918], the “NRAS/KRAS (ratio of KD value with respect to NRAS to KD value with respect to KRAS)” value in test [1] (KD ratio, SPR) is “B (a compound having 3 or more and less than 10 is denoted as B)”. The “HRAS/KRAS (ratio of KD value with respect to HRAS to KD value with respect to KRAS)” value in test [2] (KD ratio, SPR) is “B (a compound having 3 or more and less than 10 is denoted as B)”.

As for `CCO[C@@H]1C[C@H]2C(=O)NC3(CC(C)(C)C3)C(=O)N(C)[C@@H](C3CCCC3)C(=O)N(C)[C@H](C(=O)N(C)C)CC(=O)N(C)[C@@H](CC3CCC3)C(=O)N[C@@H]([C@@H](C)CC)C(=O)N(C)CC(=O)N(C)[C@H]3C/C=C\CCN(C3=O)[C@@H](Cc3ccc(C(F)(F)F)cc3)C(=O)N(C)CC(=O)N[C@@H](CCc3ccc(C(F)(F)F)c(Cl)c3)C(=O)N2C1` [PP1752], in test [1] (KD ratio, SPR), the “NRAS/KRAS (ratio of KD value for NRAS to KD value for KRAS)” value is “A (a compound having 10 or more and less than 20 is denoted as A)”. For the same molecule, the “HRAS/KRAS (ratio of KD value for HRAS to KD value for KRAS)” value in test [2] (KD ratio, SPR) was “A (a compound having 10 or more and less than 20 is denoted as A)”.

For the molecule `CCCN1C(=O)CN(C)C(=O)CN(C)C(=O)[C@H]([C@@H](C)CC)NC(=O)[C@H](C2CCC2)N(C)C(=O)C[C@@H](C(=O)N2CCOCC2)N(C)C(=O)[C@H](C2CCCC2)N(C)C(=O)C2(CCCC2)NC(=O)[C@@H]2CCCN2C(=O)[C@H](CCc2ccc(C(F)(F)F)c(Cl)c2)NC(=O)CN(C)C(=O)[C@@H]1Cc1ccc(C(F)(F)F)cc1` [PP0188] ([NMeGly(cBu)]I[Sar][Sar][NPrPhe(4-CF3)][Sar][hPhe(3-Cl-4-CF3)]P[Ac5c][NMeGly(cPent)][NMeD]-Morpholide; lactam N-11), in test [1] (KD ratio NRAS/KRAS, SPR), the “NRAS/KRAS (ratio of KD for GDP-bound NRAS wild-type to KD for KRAS)” value is “B (a compound having 3 or more and less than 10 is denoted as B)”. The “HRAS/KRAS (ratio of KD for GDP-bound HRAS wild-type to KD for KRAS)” value in test [2] (KD ratio HRAS/KRAS, SPR) is “C (A compound having a KD ratio of 0.1 or more and less than 3 is denoted as C)”.

Take `CCC[C@H]1C(=O)N[C@@H]([C@@H](C)CC)C(=O)N(C)CC(=O)N(C)[C@H]2C/C=C\CCN(C2=O)[C@@H](Cc2ccc(C(F)(F)F)cc2)C(=O)N(C)CC(=O)N[C@@H](CCc2cc(F)c(C(F)(F)F)c(F)c2)C(=O)N2C[C@H](OCC)C[C@H]2C(=O)NC2(CC(C)(C)C2)C(=O)N(C)[C@@H](C2CCCC2)C(=O)N(C)[C@H](C(=O)N(C)CC)CC(=O)N1C` [PP1646]: the “NRAS/KRAS (ratio of KD value for NRAS to KD value for KRAS)” value in test [1] (KD ratio, SPR) was “A (a compound having 10 or more and less than 20 is denoted as A)”. The “HRAS/KRAS (ratio of KD value for HRAS to KD value for KRAS)” value in test [2] (KD ratio, SPR) is “A (a compound having 10 or more and less than 20 is denoted as A)”.

As to `CCC[C@H]1C(=O)N[C@@H]([C@@H](C)CC)C(=O)N(C2CC2)CC(=O)N(C)[C@H]2C/C=C\CCN(C2=O)[C@@H](Cc2ccc(C)cc2)C(=O)N(C)CC(=O)N[C@@H](CCc2ccc(C(F)(F)F)c(OC)c2)C(=O)N2C[C@H](OCC)C[C@H]2C(=O)NC2(CC(C)(C)C2)C(=O)N(C)[C@@H](CC2CC2)C(=O)N(C)[C@H](C(=O)N(C)C)CC(=O)N1C` [PP2803], in test [1] (KD ratio NRAS/KRAS, class symbols), the “NRAS/KRAS (ratio of KD value with respect to GDP-bound NRAS wild-type protein to KD value with respect to KRAS)” value was “A (a compound having 10 or more and less than 20 is denoted as A)”. Also, the “HRAS/KRAS (ratio of KD value with respect to GDP-bound HRAS wild-type protein to KD value with respect to KRAS)” value in test [2] (KD ratio HRAS/KRAS, class symbols) was “A (a compound having 10 or more and less than 20 is denoted as A)”.

Consider `CCC[C@@H]1C[C@H]2C(=O)NC3(CCCC3)C(=O)N(C)[C@@H](C3CCCC3)C(=O)N(C)[C@H](C(=O)N(C)CC)CC(=O)N(C)[C@@H](C)C(=O)N[C@@H]([C@@H](C)CC)C(=O)N(C)CC(=O)N(C)[C@H]3C/C=C\CCN(C3=O)[C@@H](Cc3ccc(C(F)(F)F)cc3)C(=O)N(C)CC(=O)N[C@@H](CCc3cc(F)c(C(F)(F)F)c(F)c3)C(=O)N2C1` [PP2272], for which the “NRAS/KRAS (ratio of KD value with respect to NRAS to KD value with respect to KRAS)” value in test [1] (SPR) is listed as “AA (a compound having 20 or more is denoted as AA)”. For the same molecule, in test [2] (SPR), the “HRAS/KRAS (ratio of KD value with respect to HRAS to KD value with respect to KRAS)” value was “A (a compound having 10 or more and less than 20 is denoted as A)”.
